Measurements as given in patent publication US20140303092A1 (CHIMERIX, INC., priority 2011, published 2014).

Legend:
[1] = rat, in vivo
Source text: AME of ^14C-HDP-CDV Following Oral Administration to Bile Duct-Intact and Bile Duct-Cannulated Rats. In order to more fully define the CYP enzymes involved in HDP-CDV elimination, the disposition and metabolism of ^14C-radiolabeled-HDP-CDV was studied in bile-duct cannulated rats either with or without pretreatment with the broad-spectrum CYP inhibitor aminobenzotriazole (ABT). This study has completed the in-life phase and sample analysis is ongoing.

[2] = mouse, in vivo
[3] = test system: CYP3A; type: in vitro ADME
[4] = clinical; conditions: human, in vivo
Procedure: The pharmacokinetics of HDP-CDV (oral solution) were investigated in a dose-escalation study in healthy volunteers (Study HDP-CDV-102) in which single doses of up to 2 mg/kg and multiple doses (3 doses, each separated by 6 days) of up to 1 mg/kg were administered.

[5] = biological target: P-gp (Homo sapiens, UniProt P08183); experiment: P-gp inhibition in vitro; type: in vitro ADME; conditions: in vitro results
Chain of P-gp (P08183 whole entry): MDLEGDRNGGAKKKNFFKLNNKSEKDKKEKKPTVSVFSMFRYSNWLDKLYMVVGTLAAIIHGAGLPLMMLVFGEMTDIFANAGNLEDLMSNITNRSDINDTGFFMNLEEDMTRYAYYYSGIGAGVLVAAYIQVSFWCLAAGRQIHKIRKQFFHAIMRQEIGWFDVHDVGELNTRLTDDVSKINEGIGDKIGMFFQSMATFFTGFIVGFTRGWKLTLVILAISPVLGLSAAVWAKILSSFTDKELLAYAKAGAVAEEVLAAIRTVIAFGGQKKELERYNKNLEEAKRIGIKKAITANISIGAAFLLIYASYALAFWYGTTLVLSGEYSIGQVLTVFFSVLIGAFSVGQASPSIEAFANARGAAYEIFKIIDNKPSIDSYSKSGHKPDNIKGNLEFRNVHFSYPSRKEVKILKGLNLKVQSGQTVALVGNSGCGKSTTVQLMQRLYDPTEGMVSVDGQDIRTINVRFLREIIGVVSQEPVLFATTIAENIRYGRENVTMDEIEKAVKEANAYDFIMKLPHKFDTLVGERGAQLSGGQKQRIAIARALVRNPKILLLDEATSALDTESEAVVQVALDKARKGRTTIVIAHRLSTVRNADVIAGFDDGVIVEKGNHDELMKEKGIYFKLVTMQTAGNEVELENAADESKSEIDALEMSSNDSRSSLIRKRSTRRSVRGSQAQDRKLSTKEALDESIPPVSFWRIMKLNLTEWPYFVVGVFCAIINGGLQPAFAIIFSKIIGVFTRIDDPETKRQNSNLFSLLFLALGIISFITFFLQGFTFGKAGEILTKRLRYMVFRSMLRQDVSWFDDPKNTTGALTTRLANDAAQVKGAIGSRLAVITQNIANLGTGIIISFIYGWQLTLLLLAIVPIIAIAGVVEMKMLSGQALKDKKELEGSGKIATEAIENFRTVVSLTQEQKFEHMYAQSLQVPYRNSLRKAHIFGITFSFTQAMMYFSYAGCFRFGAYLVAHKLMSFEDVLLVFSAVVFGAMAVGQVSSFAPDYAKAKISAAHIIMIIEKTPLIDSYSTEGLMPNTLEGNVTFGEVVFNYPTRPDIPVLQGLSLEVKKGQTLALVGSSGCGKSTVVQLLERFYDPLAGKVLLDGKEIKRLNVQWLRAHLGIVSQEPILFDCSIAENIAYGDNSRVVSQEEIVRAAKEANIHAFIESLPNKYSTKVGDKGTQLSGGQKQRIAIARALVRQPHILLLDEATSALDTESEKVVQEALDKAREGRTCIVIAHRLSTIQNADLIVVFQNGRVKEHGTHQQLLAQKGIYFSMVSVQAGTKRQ
Source text: Due to this potential interaction, digoxin is excluded medication in Study HDP-CDV-301 (see Example 5).

[6] = test system: CMV; experiment: In vitro antiviral activity in cell culture, CMV; type: cell-based, cytomegalovirus; conditions: dsDNA viruses including CMV and AdV
[7] = Study HDP-CDV-201: GVHD reported as AE, weekly stage and grade, logistic regression versus dose; parameters: species or system human (HSCT recipients); conditions: human, in vivo
Procedure: Because of the increased frequency of reports of acute GVHD in the BIW Cohorts of Study HDP-CDV-201, an in-depth analysis of reported GVHD was conducted. This analysis includes data from the following sources: Adverse events as reported in the eCRF, including GVHD and GI events; Weekly GVHD assessments (by stage, organ, and grade) as reported by the investigators on the GVHD module of the eCRF. […]
For all subjects, the sites were instructed to record the presence or absence of GVHD, and stage and grade of GVHD, if present, at each visit on a separate eCRF page. […] Stage and grade of GVHD were evaluated per the NIH consensus guidelines (Przepiorka D, et al. Consensus conference on acute GVHD grading. Bone Marrow Transplant. 1995; 15(6): 825-828), which focus on the intensity of symptoms or laboratory abnormalities associated with GVHD (for example, the staging of GVHD of the intestine is based on the volume of diarrhea). […]

CCCCCCCCCCCCCCCCOCCCOP(=O)(O)COC(CO)Cn1ccc(N)nc1=O (centres unmarked) [HDP-CDV]
administered radioactivity excreted in bile [1]: ~8% | administered radioactivity excreted in feces [1]: ~57% | administered radioactivity excreted in urine [1]: approximately 30% | radioactivity excreted in bile [1]: 3% | radioactivity excreted in feces [1]: 55% | radioactivity excreted in urine [1]: 28% | recovery of radioactivity [1]: ≥ 90% | ALT increases in individual animals [2]: up to 5 fold | inhibition of CYP3A activity in vitro [3]: moderate inhibitor | Cmax and AUC versus dose [4]: increased approximately in proportion to dose | accumulation on Day 12 [4]: negligible accumulation | quantifiable in urine [4]: not quantifiable in the urine | half-life ([4]; 1 mg/kg): 27 h | time of Cmax after administration ([4]; po): 2 to 3 h | inhibition of P-gp [5]: may inhibit P-gp | higher potency in comparison to cidofovir, ganciclovir and other nucleoside analogs [6]: 100 to 1000 fold | overall frequency of GVHD [7]: 44 to 59%
